Measured values published in article PMC8524858, “Dual inhibition of αvβ6 and αvβ1 reduces fibrogenesis in lung tissue explants from patients with IPF” (Respiratory Research, 2021).

How the values were obtained:
human integrin αvβ8 = target: T1, human integrin αvβ8 (Homo sapiens, UniProt P06756+P26012); test: Integrin ligand-binding assay, αvβ8 (LAP ligand)
T1 construct: purchased R&D Systems 4135-AV
Experimental: (§1) Integrin ligand-binding assays were performed similar to that previously described.
Microplates were coated with recombinant human integrins dissolved in PBS (2 µg/ml, overnight at room temperature). Following removal of the coating solution, plates were washed with PBS. Plates were blocked with 200 µL/well of blocking buffer (2% bovine serum albumin [BSA] in PBS) at 37 °C for 1 h. […] Plates were incubated for 2 h at 25 °C, washed, and incubated for 1 h with biotin-labeled anti-fibronectin or anti-LAP antibodies (for αvβ1 or αvβ6/αvβ8, respectively).

[1] = test system: αvβ1-induced TGF-β activation; test: TGF-β co-culture assay, CHO-αv cells with MLEC luciferase reporter cells; type: cell-based, human; details: integrin αvβ1
Experimental: (§2) SW-β6 cells and MLECs or CHO-αv cells and MLECs were cultured in 96-well plates with test compounds or antibodies for 20 h at 37 °C in a 5% CO2 incubator. […] Measurement of MLEC luciferase production resulting from αvβ6- or αvβ1-mediated TGF-β activation was performed using the Bright-Glo Luciferase Assay System (Promega; Madison, WI, USA) according to manufacturer’s instruction. Luminescence was quantified by a Tecan Spark 10M plate reader. IC50 curves were generated using Dotmatics software suite with five-parameter logistic curve fitting. Geometric mean IC50 was calculated for each compound from multiple independent analyses.

[2] = target: T2, αvβ6-induced TGF-β activation (Homo sapiens, UniProt P06756+P18564); test: TGF-β co-culture assay, SW-β6 cells with MLEC luciferase reporter cells; type: cell-based; details: integrin αvβ6
T2 construct: expressed in transfected cells; host or cells: SW480 cells stably transfected with β6 (SW-β6), co-cultured with MLEC reporter cells
T2 sequence (P06756 31-1048): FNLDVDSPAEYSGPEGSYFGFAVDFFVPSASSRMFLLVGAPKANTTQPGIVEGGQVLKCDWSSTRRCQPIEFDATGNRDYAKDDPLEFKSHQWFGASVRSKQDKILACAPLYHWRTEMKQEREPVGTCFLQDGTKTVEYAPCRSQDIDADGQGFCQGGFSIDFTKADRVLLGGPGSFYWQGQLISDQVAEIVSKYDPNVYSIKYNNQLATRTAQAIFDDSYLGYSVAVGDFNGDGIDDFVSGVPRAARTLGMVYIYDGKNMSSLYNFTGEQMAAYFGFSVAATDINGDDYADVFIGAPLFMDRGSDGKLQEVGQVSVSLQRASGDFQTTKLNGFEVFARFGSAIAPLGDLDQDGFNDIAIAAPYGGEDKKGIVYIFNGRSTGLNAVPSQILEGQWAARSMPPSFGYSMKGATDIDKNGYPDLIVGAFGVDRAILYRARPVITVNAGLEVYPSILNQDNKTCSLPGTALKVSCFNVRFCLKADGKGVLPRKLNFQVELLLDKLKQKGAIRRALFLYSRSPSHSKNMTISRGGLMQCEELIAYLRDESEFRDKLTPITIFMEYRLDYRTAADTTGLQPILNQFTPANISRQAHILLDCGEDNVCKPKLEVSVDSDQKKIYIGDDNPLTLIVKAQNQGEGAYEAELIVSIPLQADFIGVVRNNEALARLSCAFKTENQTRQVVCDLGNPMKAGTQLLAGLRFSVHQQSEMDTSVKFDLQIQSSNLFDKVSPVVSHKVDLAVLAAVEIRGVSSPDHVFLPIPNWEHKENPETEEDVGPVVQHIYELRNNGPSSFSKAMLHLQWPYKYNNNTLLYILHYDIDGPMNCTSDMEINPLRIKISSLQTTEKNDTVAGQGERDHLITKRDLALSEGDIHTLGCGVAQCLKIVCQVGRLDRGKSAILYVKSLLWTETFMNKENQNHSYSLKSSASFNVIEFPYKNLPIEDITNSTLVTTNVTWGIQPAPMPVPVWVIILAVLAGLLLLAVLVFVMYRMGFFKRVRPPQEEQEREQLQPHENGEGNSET
T2 sequence (P18564 22-788): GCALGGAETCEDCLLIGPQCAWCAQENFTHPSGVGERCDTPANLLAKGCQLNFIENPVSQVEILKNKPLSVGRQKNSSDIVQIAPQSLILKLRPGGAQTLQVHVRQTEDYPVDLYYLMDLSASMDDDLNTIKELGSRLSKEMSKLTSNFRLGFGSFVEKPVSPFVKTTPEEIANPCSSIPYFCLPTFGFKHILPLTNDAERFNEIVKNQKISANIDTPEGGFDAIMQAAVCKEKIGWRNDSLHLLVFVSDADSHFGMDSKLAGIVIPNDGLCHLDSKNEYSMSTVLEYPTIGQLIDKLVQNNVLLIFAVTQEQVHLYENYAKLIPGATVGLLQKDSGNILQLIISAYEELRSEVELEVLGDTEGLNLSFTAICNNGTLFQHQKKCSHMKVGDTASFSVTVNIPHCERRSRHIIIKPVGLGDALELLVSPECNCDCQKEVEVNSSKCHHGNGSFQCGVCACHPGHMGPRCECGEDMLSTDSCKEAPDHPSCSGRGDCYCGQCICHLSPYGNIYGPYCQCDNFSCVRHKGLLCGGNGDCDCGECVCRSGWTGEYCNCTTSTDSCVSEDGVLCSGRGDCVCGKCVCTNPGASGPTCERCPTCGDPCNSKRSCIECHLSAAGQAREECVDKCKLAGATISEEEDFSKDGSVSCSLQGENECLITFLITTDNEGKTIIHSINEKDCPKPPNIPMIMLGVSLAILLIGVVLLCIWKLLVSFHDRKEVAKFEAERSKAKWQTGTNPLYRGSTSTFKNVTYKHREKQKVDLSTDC
Experimental: as §2

[3] = test system: PCLSs prepared from explanted lung tissue from patients with IPF; test: Fibrotic gene expression in PCLSs from IPF lung explants; type: cell-based, human
Text: PCLSs were generated from explanted lung tissue from patients with IPF and cultured as previously described. Mouse PCLSs were generated and cultured as previously described. Messenger ribonucleic acid (mRNA) levels in lysates prepared from snap-frozen tissue slices were quantified via NanoString PlexSet reagents and nCounter SPRINT Profiler (NanoString; Seattle, WA, USA; Additional file 1: Table S2) or TaqMan primers/probes on a Bio-Rad CFX96 thermocycler (Bio-Rad; Hercules, CA, USA; Additional file 1: Table S3).
Human PCLSs were generated from lung tissue explants from patients with IPF undergoing transplant surgery and cultured based on previously reported methods (E7-E12). Slices of tissue (400 µm) were cut using a Compresstome VF-300-0Z (Precisionary Instruments; Natick, MA, USA).
Slices from each individual core (human) or mouse were distributed among the treatment groups to control for variability in the fibrotic injury within the tissue. […] After 3 or 7 days in culture, slices were washed and snap-frozen. Viability of sentinel slices on Days 0/1 and 3/7 was determined using WST-1 Cell Proliferation Reagent (Sigma 5015944001; St Louis, MO, USA).
For all figures (except Fig. 2B, Fig. S2, and Fig. S4), snap-frozen tissue slices were incubated in one-third RLT buffer (Qiagen #79216; Venlo, Netherlands) supplemented with 2 mg/ml proteinase K (Sigma-Aldrich #3115887001; St Louis, MO, USA) at 55 °C for 2 h 45 min, with periodic vortexing to generate ribonucleic acid (RNA)-compatible tissue lysate. This lysate was incubated overnight with probes from a custom fibrosis gene panel and NanoString PlexSet reagents (Table S2). The following day, samples were analyzed on a NanoString nCounter SPRINT Profiler (NanoString; Seattle, WA, USA). Messenger RNA (mRNA) counts were normalized to housekeeping genes (GUSB, HPRT1, RPLP0, and/or POLR1B) and total mRNA counts, relative to vehicle-treated control from the same experiment, are reported.

other αv integrins = test: Human integrin ligand-binding assays, selectivity over the panel
Experimental: as §1
Microplates were coated with recombinant human integrins dissolved in PBS (2 µg/ml, overnight at room temperature). Following removal of the coating solution, plates were washed with PBS. Plates were blocked with 200 µL/well of blocking buffer (2% bovine serum albumin [BSA] in PBS) at 37 °C for 1 h. Serial dilutions of test compounds and 2 µg/ml of recombinant ligands were added: fibronectin (R&D Systems #1918-Fn) for integrin αvβ1, LAP (Sino Biological #10804-H08H1; Beijing, China) for integrins αvβ6 and αvβ8, or biotin-tagged vitronectin (Molecular Innovations, Inc. #HVNUBIO) for integrins αvβ3 and αvβ5 in binding/wash buffer (50 mM Tris-HCl, pH 7.5; 0.1% BSA, NaCl 150 mM; 0.02% Tween-20; 1 mM CaCl2; 1 mM MnCl2; 1 mM MgCl2). Plates were incubated for 2 h at 25 °C, washed, and incubated for 1 h with biotin-labeled anti-fibronectin or anti-LAP antibodies (for αvβ1 or αvβ6/αvβ8, respectively). After washing, bound antibody was incubated with peroxidase-conjugated streptavidin (Thermo Fisher #21134; 1:2000 dilution) for 30 minutes (min) at room temperature. Following an additional washing step, 100 μL TMB substrate (BD Biosciences #555214; San Jose, CA, USA) was added and integrin binding was quantified by measuring absorbance at 450 nm by a Tecan Spark 10M plate reader (Tecan; Männedorf, Switzerland).

[4] = 7 days, PLN-74809 200 nM, relative to vehicle (Fig. 6B)

T1 sequence (P06756 31-992 limits assumed): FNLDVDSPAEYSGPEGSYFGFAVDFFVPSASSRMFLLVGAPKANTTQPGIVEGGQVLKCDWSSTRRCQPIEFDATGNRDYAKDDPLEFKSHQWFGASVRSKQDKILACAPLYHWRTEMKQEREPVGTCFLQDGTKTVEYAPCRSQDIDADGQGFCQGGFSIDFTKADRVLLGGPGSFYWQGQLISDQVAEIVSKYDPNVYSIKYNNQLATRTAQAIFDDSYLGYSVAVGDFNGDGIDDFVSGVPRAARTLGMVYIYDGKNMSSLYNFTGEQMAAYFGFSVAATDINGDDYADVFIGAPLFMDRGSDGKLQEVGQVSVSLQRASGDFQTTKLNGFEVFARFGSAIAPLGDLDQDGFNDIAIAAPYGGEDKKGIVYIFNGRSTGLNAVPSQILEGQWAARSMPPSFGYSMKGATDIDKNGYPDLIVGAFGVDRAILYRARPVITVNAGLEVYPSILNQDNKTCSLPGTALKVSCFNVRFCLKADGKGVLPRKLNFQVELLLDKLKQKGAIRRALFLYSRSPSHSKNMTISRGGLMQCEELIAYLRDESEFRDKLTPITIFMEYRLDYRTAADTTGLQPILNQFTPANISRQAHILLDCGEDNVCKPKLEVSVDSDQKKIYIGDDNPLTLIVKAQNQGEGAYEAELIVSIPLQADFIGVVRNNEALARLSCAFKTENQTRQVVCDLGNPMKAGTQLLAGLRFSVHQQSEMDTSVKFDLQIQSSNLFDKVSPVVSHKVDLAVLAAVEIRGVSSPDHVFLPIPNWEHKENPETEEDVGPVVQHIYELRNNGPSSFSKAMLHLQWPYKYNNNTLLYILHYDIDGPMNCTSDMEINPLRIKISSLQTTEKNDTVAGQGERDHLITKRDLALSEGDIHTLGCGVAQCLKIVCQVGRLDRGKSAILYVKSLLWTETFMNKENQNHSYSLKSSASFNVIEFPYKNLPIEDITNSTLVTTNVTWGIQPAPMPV
T1 sequence (P26012 43-684 limits assumed): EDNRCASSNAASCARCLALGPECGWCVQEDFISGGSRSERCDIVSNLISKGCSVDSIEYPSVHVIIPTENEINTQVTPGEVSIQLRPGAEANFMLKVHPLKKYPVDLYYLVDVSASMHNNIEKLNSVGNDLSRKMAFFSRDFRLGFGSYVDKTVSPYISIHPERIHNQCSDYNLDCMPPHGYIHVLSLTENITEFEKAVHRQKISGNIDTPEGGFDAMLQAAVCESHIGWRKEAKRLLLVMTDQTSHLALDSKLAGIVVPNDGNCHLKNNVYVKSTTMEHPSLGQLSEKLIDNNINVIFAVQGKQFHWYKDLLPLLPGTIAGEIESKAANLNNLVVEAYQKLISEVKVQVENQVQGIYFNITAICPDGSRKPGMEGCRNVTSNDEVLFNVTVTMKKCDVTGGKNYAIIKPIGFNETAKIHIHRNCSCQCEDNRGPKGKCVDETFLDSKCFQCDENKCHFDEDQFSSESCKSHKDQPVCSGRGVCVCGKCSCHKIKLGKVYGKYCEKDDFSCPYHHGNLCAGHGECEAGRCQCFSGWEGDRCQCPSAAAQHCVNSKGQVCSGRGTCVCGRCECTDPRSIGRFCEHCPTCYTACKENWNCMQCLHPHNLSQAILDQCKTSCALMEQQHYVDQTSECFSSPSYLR

COCCN(CCCCc1ccc2c(n1)NCCC2)CC[C@H](Nc1ncnc2ccccc12)C(=O)O [PLN-74809]
IC50 (human integrin αvβ8): 2540 nM
Fold selectivity (vs αvβ6) (human integrin αvβ8; ligand binding): 445×
Fold selectivity (vs αvβ6) ([1]; TGF-β activation): 0.6×
IC50 [1]: 19.2 nM
Fold selectivity (vs αvβ6) ([2]; TGF-β activation): 1×
IC50 [2]: 29.8 nM
reduction of COL1A1 mRNA expression ([3]; 7-day incubation, Compound A 471 nM, 3G9 0.5 µg/ml, PLN-74809 1.82 µM, ALK5i R-268712 1 µM, vs vehicle (Fig. 1A)): 54%
reduction of COL1A1 mRNA expression ([3]; 7 days, PLN-74809 200 nM, nintedanib 75 nM, pirfenidone 50 µM, vs DMSO (Fig. 6A)): 42%
reduction of COL3A1 expression [3, 4]: 30%
reduction of SERPINE1 expression [3, 4]: 39%
reduction of TIMP1 expression [3, 4]: 26%
reduction of collagen gene expression ([3]; at concentrations as low as 2 nM, explanted tissue from a patient with IPF): ~ 50%
lowest concentration sufficient to significantly reduce COL1A1 expression ([3]; dose titration, PCLSs from a single patient with IPF (Fig. S1C)): 2 nM
selectivity over other αv integrins (other αv integrins): ≥ 445 fold
